# Measured values published in US20030109432A1, “Anticancer polypeptide-metal complexes and compositions, methods of making, and methods of using same” (priority 2001, published 2003).
# Tested on: tumor tissues (breast)
# Experiment: Immunohistopathology of tumor tissue after treatment
# Assay type: in vivo
# Settings: 48 hours post treatment, FIG. 7
# Source text: After treatment with either cisplatin or the platinum peptide complex, tumor tissues (breast) were dissected and embedded in […]. The tumor tissue was fixed in […] and stained for cellular target expression.
row,Compound,histopathological changes
1,"[NH2][Pt]([NH2])([Cl])[Cl] [CDDP, cisplatin]",marked necrosis and apoptosis
2,"cis-1,2-DACH—Pt (II)-poly(glutamic/aspartic acid) [PDDP]",marked necrosis and apoptosis
